# Assay results from US6720331B2, “1-substituted 1,2,3,4-tetrahydro-β-carboline and 3,4-dihydro-β-carboline and analogs as antitumor agents” (National Sun Yat-sen University, priority 2001, dated 2004).
# What was measured:
# [1] = test system: P-388 (murine leukemia); assay: Growth inhibition of tumor cell line P-388 (Table 1); format: cell-based; conditions: 3 day drug exposure; columns A/B = scaffold type
# [2] = test system: HepG2 (hepatoblastoma, liver); assay: alamarBlue anti-proliferation assay, Liver HepG2; format: cell-based, human; conditions: for Percent Growth (Mean ± SEM, n = 2): 72 hour
# Method: (§1) The growth effects of compound 29 was tested on 8 different human tumour cell lines. Changes in cell proliferation based on the ability of viable cells to cause alamar Blue to change from its oxidized (non-fluorescent, blue) to a reduced (fluorescent, red) form were evaluated. With the results obtained from the alamarBlue reaction, cell proliferation was quantified and metabolic activity of viable cells examined. Test compound, (29), was tested for its effect on the proliferation of 8 different human tumor cell lines at five final assay concentrations from 100 to 0.01 μM through serial 10-fold dilutions, respectively.
# (§2) Compound 29 was dissolved in 100% ethanol and then diluted with Phosphate Buffer Saline (PBS, pH=7.4) to obtain initial working solutions of 10000, 1000, 100, 10 and 1 μM in 40% ethanol. In testing, 100-fold dilution was made in culture media to get final assay concentrations of 100, 10, 1, 0.1 and 0.01 μM in 0.4% of ethanol.
# (§3) Aliquots of 100 μl of cell suspension (about 2.5-5×10^3/well) were placed in 96well microtiter plates in an atmosphere of 5% CO2 at 37° C. After 24 hours, 100 μl of growth medium, 2 μL of test solution or vehicle (40% DMSO), was added respectively per well in duplicate for an additional 72 hour incubation. Thus, the final concentration of DMSO was 0.4%. The test compound was evaluated at concentrations of 100, 10, 1, 0.1 and 0.01 μM. At the end of the incubation, 20 μL of alamarBlue 75% reagent was added to each well for another 6-hour incubation before detection of cell viability by fluorescent intensity. Fluorescent intensity was measured using a Spectrafluor Plus plate reader with excitation at 530 nm and emission at 590 nm.
# (§4) PG(%)=100×(Mean Ftest−Mean Ftime0)/(Mean Fctrl−Mean Ftime0).
# (§5) PG(%)=100×(Mean Ftest−Mean Ftime0)/(Mean Ftime0−Mean Fblank)
# (§6) A decrease of 50% or more (≧50%) in fluorescent intensity relative to vehicle-treated control indicated significant cytostatic or cytotoxic activity, and a semi-quantitative IC50, TGI and LC50 were then determined by nonlinear regression using GraphPad Prism (GraphPad Software, U.S.A.).
# (§7) IC50 (50% Inhibition Concentration): Test Compound concentration at which the increase from time0 in the number or mass of treated cells was only 50% as much as the corresponding increase in the vehicle-control at the end of experiment.
# (§8) TGI (Total Growth Inhibition): Test compound concentration at which the number or mass of treated cells at the end of the experiment was equal to that at time0.
# (§9) LC50 (50% Lethal Concentration): Test compound concentration at which the number of mass of treated cells at the end of the experiment was half that at time0.
# [3] = test system: A-549 (human lung adenocarcinoma); assay: Growth inhibition of tumor cell line A-549 (Table 1); format: cell-based; conditions: 6 day drug exposure; columns A/B = scaffold type
# [4] = test system: HT-29 (human colon adenocarcinoma); assay: Growth inhibition of tumor cell line HT-29 (Table 1); format: cell-based; conditions: 6 day drug exposure; columns A/B = scaffold type
# [5] = test system: HT-29 (colon adenocarcinoma); assay: alamarBlue anti-proliferation assay, Colon HT-29; format: cell-based, human; conditions: for Percent Growth (Mean ± SEM, n = 2): 72 hour
# Method: as §1, §2, §3, §4, §5, §6, §7, §8, §9
# [6] = test system: MCF-7 (breast adenocarcinoma); assay: alamarBlue anti-proliferation assay, Breast MCF-7; format: cell-based, human; conditions: for Percent Growth (Mean ± SEM, n = 2): 72 hour
# Method: as §1, §2, §3, §4, §5, §6, §7, §8, §9
# [7] = test system: PC-6 (lung carcinoma); assay: alamarBlue anti-proliferation assay, Lung PC-6; format: cell-based, human; conditions: for Percent Growth (Mean ± SEM, n = 2): 72 hour
# Method: as §1, §2, §3, §4, §5, §6, §7, §8, §9
# [8] = test system: PC-3 (prostate adenocarcinoma); assay: alamarBlue anti-proliferation assay, Prostate PC-3; format: cell-based, human; conditions: for Percent Growth (Mean ± SEM, n = 2): 72 hour
# Method: as §1, §2, §3, §4, §5, §6, §7, §8, §9
# [9] = test system: T47D (breast ductal carcinoma); assay: alamarBlue anti-proliferation assay, Breast T47D; format: cell-based, human; conditions: 72 hour
# Method: as §1, §2, §3, §4, §5, §6, §7, §8, §9
# [10] = test system: U-937 (histiocytic lymphoma); assay: alamarBlue anti-proliferation assay, Lymphoma U-937; format: cell-based, human; conditions: for Percent Growth (Mean ± SEM, n = 2): 72 hour
# Method: as §1, §2, §3, §4, §5, §6, §7, §8, §9
# [11] = test system: HL-60 (promyelocytic leukemia); assay: alamarBlue anti-proliferation assay, Leukemia HL-60; format: cell-based, human; conditions: for Percent Growth (Mean ± SEM, n = 2): 72 hour
# Method: as §1, §2, §3, §4, §5, §6, §7, §8, §9
# [12] = test system: KB-16 (human nasopharyngeal carcinoma); assay: Growth inhibition of tumor cell line KB-16 (Table 1); format: cell-based; conditions: 3 day drug exposure; columns A/B = scaffold type
smiles,measurement,setting,value
"CCn1c2ccccc2c2cc(C3=NCCc4c3[nH]c3ccccc43)ccc21 [Compound 29, 1-(9′-Ethyl-3′-carbazole)-3,4-dihydro-β-carboline]","IC50, concentration inhibiting 50% of the growth of P-388",[1],< 1 ng/mL
same,"Percent Growth (Mean ± SEM, n = 2)","[2]; HepG2, 0.01 μM",106 ± 2%
same,"Percent Growth (Mean ± SEM, n = 2)","[2]; HepG2, 0.1 μM",96 ± 11%
same,"Percent Growth (Mean ± SEM, n = 2)","[2]; HepG2, 1 μM",81 ± 4%
same,"Percent Growth (Mean ± SEM, n = 2)","[2]; HepG2, 10 μM",−27 ± 7%
same,"Percent Growth (Mean ± SEM, n = 2)","[2]; HepG2, 100 μM",−100 ± 3%
same,Estimated TGI (Total Growth Inhibition),"[2]; HepG2, 72 hour, semi-quantitative",5.2 µM
same,IC50,"[2]; HepG2, 72 hour, semi-quantitative, read-out: Estimated IC50 (50% Inhibition Concentration)",2.2 µM
same,LC50 (50% lethal concentration),"[2]; HepG2, 72 hour, semi-quantitative, read-out: Estimated cIC50 (footnote c: LC50, 50% Lethal Concentration)",12.5 µM
same,"IC50, concentration inhibiting 50% of the growth of A-549",[3],<1 ng/mL
same,"IC50, concentration inhibiting 50% of the growth of HT-29",[4],<1 ng/mL
same,"Percent Growth (Mean ± SEM, n = 2)","[5]; HT-29, 0.01 μM",97 ± 4%
same,"Percent Growth (Mean ± SEM, n = 2)","[5]; HT-29, 0.1 μM",101 ± 8%
same,"Percent Growth (Mean ± SEM, n = 2)","[5]; HT-29, 1 μM",85 ± 3%
same,"Percent Growth (Mean ± SEM, n = 2)","[5]; HT-29, 10 μM",−30 ± 15%
same,"Percent Growth (Mean ± SEM, n = 2)","[5]; HT-29, 100 μM",−94 ± 3%
same,Estimated TGI (Total Growth Inhibition),"[5]; HT-29, 72 hour, semi-quantitative",5.2 µM
same,IC50,"[5]; HT-29, 72 hour, semi-quantitative, read-out: Estimated IC50 (50% Inhibition Concentration)",2.3 µM
same,LC50 (50% lethal concentration),"[5]; HT-29, 72 hour, semi-quantitative, read-out: Estimated cIC50 (footnote c: LC50, 50% Lethal Concentration)",11.7 µM
same,"Percent Growth (Mean ± SEM, n = 2)","[6]; MCF-7, 0.01 μM",97 ± 1%
same,"Percent Growth (Mean ± SEM, n = 2)","[6]; MCF-7, 0.1 μM",94 ± 7%
same,"Percent Growth (Mean ± SEM, n = 2)","[6]; MCF-7, 1 μM",85 ± 8%
same,"Percent Growth (Mean ± SEM, n = 2)","[6]; MCF-7, 10 μM",−48 ± 11%
same,"Percent Growth (Mean ± SEM, n = 2)","[6]; MCF-7, 100 μM",−100 ± 0%
same,Estimated TGI (Total Growth Inhibition),"[6]; MCF-7, 72 hour, semi-quantitative",4.2 µM
same,IC50,"[6]; MCF-7, 72 hour, semi-quantitative, read-out: Estimated IC50 (50% Inhibition Concentration)",2 µM
same,LC50 (50% lethal concentration),"[6]; MCF-7, 72 hour, semi-quantitative, read-out: Estimated cIC50 (footnote c: LC50, 50% Lethal Concentration)",8.3 µM
same,"Percent Growth (Mean ± SEM, n = 2)","[7]; PC-6, 0.01 μM",101 ± 1%
same,"Percent Growth (Mean ± SEM, n = 2)","[7]; PC-6, 0.1 μM",97 ± 5%
same,"Percent Growth (Mean ± SEM, n = 2)","[7]; PC-6, 1 μM",95 ± 5%
same,"Percent Growth (Mean ± SEM, n = 2)","[7]; PC-6, 10 μM",24 ± 2%
same,"Percent Growth (Mean ± SEM, n = 2)","[7]; PC-6, 100 μM",−79 ± 11%
same,Estimated TGI (Total Growth Inhibition),"[7]; PC-6, 72 hour, semi-quantitative",12.5 µM
same,IC50,"[7]; PC-6, 72 hour, semi-quantitative, read-out: Estimated IC50 (50% Inhibition Concentration)",5 µM
same,LC50 (50% lethal concentration),"[7]; PC-6, 72 hour, semi-quantitative, read-out: Estimated cIC50 (footnote c: LC50, 50% Lethal Concentration)",32.5 µM
same,"Percent Growth (Mean ± SEM, n = 2)","[8]; PC-3, 0.01 μM",100 ± 1%
same,"Percent Growth (Mean ± SEM, n = 2)","[8]; PC-3, 0.1 μM",94 ± 3%
same,"Percent Growth (Mean ± SEM, n = 2)","[8]; PC-3, 1 μM",82 ± 4%
same,"Percent Growth (Mean ± SEM, n = 2)","[8]; PC-3, 10 μM",−17 ± 9%
same,"Percent Growth (Mean ± SEM, n = 2)","[8]; PC-3, 100 μM",−93 ± 1%
same,Estimated TGI (Total Growth Inhibition),"[8]; PC-3, 72 hour, semi-quantitative",6.2 µM
same,IC50,"[8]; PC-3, 72 hour, semi-quantitative, read-out: Estimated IC50 (50% Inhibition Concentration)",2.5 µM
same,LC50 (50% lethal concentration),"[8]; PC-3, 72 hour, semi-quantitative, read-out: Estimated cIC50 (footnote c: LC50, 50% Lethal Concentration)",15 µM
same,"Percent Growth (Mean ± SEM, n = 2)",[9]; 0.01 μM,92 ± 2%
same,"Percent Growth (Mean ± SEM, n = 2)",[9]; 0.1 μM,88 ± 6%
same,"Percent Growth (Mean ± SEM, n = 2)",[9]; 1 μM,89 ± 3%
same,"Percent Growth (Mean ± SEM, n = 2)",[9]; 10 μM,25 ± 3%
same,"Percent Growth (Mean ± SEM, n = 2)",[9]; 100 μM,−100 ± 4%
same,Estimated TGI (Total Growth Inhibition),[9]; semi-quantitative,10.8 µM
same,IC50,"[9]; semi-quantitative, read-out: Estimated IC50 (50% Inhibition Concentration)",6 µM
same,LC50 (50% lethal concentration),"[9]; semi-quantitative, read-out: Estimated cIC50 (footnote c: LC50, 50% Lethal Concentration)",19.2 µM
same,"Percent Growth (Mean ± SEM, n = 2)","[10]; U-937, 0.01 μM",103 ± 3%
same,"Percent Growth (Mean ± SEM, n = 2)","[10]; U-937, 0.1 μM",97 ± 6%
same,"Percent Growth (Mean ± SEM, n = 2)","[10]; U-937, 1 μM",90 ± 2%
same,"Percent Growth (Mean ± SEM, n = 2)","[10]; U-937, 10 μM",−3 ± 4%
same,"Percent Growth (Mean ± SEM, n = 2)","[10]; U-937, 100 μM",−93 ± 0%
same,Estimated TGI (Total Growth Inhibition),"[10]; U-937, 72 hour, semi-quantitative",7.9 µM
same,IC50,"[10]; U-937, 72 hour, semi-quantitative, read-out: Estimated IC50 (50% Inhibition Concentration)",3.5 µM
same,LC50 (50% lethal concentration),"[10]; U-937, 72 hour, semi-quantitative, read-out: Estimated cIC50 (footnote c: LC50, 50% Lethal Concentration)",18.3 µM
same,"Percent Growth (Mean ± SEM, n = 2)","[11]; HL-60, 0.01 μM",99 ± 2%
same,"Percent Growth (Mean ± SEM, n = 2)","[11]; HL-60, 0.1 μM",90 ± 6%
same,"Percent Growth (Mean ± SEM, n = 2)","[11]; HL-60, 1 μM",73 ± 5%
same,"Percent Growth (Mean ± SEM, n = 2)","[11]; HL-60, 10 μM",9 ± 3%
same,"Percent Growth (Mean ± SEM, n = 2)","[11]; HL-60, 100 μM",−100 ± 2%
same,Estimated TGI (Total Growth Inhibition),"[11]; HL-60, 72 hour, semi-quantitative",8.3 µM
same,IC50,"[11]; HL-60, 72 hour, semi-quantitative, read-out: Estimated IC50 (50% Inhibition Concentration)",3.2 µM
same,LC50 (50% lethal concentration),"[11]; HL-60, 72 hour, semi-quantitative, read-out: Estimated cIC50 (footnote c: LC50, 50% Lethal Concentration)",22 µM
same,"IC50, concentration inhibiting 50% of the growth of KB-16",[12],<1 ng/mL
